What was measured:
[1] = system: winter wheat; experiment: Test E winter wheat; assay type: in vivo, Triticum aestivum; settings: Postemergence; for Wheat (winter) plant response rating: Rate 250 g/ha
Procedure, shortened: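 Compound formulated with surfactant in a non-phytotoxic solvent (postemergence: young 1- to 4-leaf plants); held in greenhouse approx. 21–28 days; visual assessment against untreated plants.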

[2] = system: Italian ryegrass; experiment: Test E Italian ryegrass; assay type: in vivo, Lolium multiflorum; settings: Preemergence; for I. Ryegrass plant response rating (0 to 100 scale): Rate 250 g/ha
[3] = system: wild oat; experiment: Test E wild oat; assay type: in vivo, Avena fatua; settings: Preemergence; for Wild oat plant response rating (0 to 100 scale): Rate 250 g/ha
[4] = system: winter barley; experiment: Test E winter barley; assay type: in vivo, Hordeum vulgare; settings: Preemergence; for Barley (winter) plant response rating (0 to 100 scale): Rate 250 g/ha
[5] = system: winter wheat; experiment: Test E winter wheat; assay type: in vivo, Triticum aestivum; settings: Preemergence; for Wheat (winter) plant response rating (0 to 100 scale): Rate 250 g/ha
[6] = system: morningglory; experiment: Test B pre/postemergence morningglory; assay type: in vivo, Ipomoea hederacea
Procedure, shortened: (§1)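 Response is a visual 0-to-10 score relative to untreated plants, where 0 means no effect and 10 means complete control, taken twelve to sixteen days after application. Treatments went onto soil at planting and onto foliage of 1- to 4-leaf plants, using a surfactant-containing non-phytotoxic solvent.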

[7] = system: blackgrass; experiment: Test E blackgrass; assay type: in vivo, Alopecurus myosuroides; settings: Preemergence; for Blackgrass plant response rating (0 to 100 scale): Rate 250 g/ha
[8] = system: green foxtail; experiment: Test E green foxtail; assay type: in vivo, Setaria viridis; settings: Preemergence; for Green foxtail plant response rating (0 to 100 scale): Rate 250 g/ha
[9] = system: pigweed; experiment: Test B pre/postemergence pigweed; assay type: in vivo, Amaranthus retroflexus
Procedure, shortened: as §1

[10] = system: wild oat; experiment: Test B pre/postemergence wild oat; assay type: in vivo, Avena fatua
Procedure, shortened: as §1

[11] = 0 to 100 scale where 0 is no effect and 100 is complete control
[12] = Rate 500 g/ha, 0 to 100 scale where 0 is no effect and 100 is complete control
[13] = Rate 1000 g/ha, 0 to 100 scale where 0 is no effect and 100 is complete control
[14] = Postemergence, Rate 125 g/ha, scale of 0 to 10 where 0 is no effect and 10 is complete control
[15] = Preemergence, Rate 62 g/ha, scale of 0 to 10 where 0 is no effect and 10 is complete control
[16] = Preemergence, Rate 125 g/ha, 0 is no effect, 10 is complete control
[17] = Preemergence, Rate 250 g/ha, scale 0 to 10, 0 is no effect, 10 is complete control
[18] = Preemergence, Rate 500 g/ha, scale 0 to 10 (0 no effect, 10 complete control)
[19] = Rate 62 g/ha, Postemergence, scale of 0 to 10 where 0 is no effect and 10 is complete control
[20] = Rate 250 g/ha, Postemergence, scale 0 to 10, 0 is no effect, 10 is complete control
[21] = Rate 500 g/ha, Postemergence, scale 0 to 10
[22] = Rate 1000 g/ha, 0 to 100 scale, 0 no effect, 100 complete control
[23] = Preemergence, Rate 250 g/ha, scale of 0 to 10 where 0 is no effect and 10 is complete control
[24] = Preemergence, Rate 500 g/ha, scale of 0 to 10 where 0 is no effect and 10 is complete control
[25] = Rate 125 g/ha, Preemergence, scale of 0 to 10 where 0 is no effect and 10 is complete control
[26] = Rate 500 g/ha, Postemergence, scale 0 to 10, 0 no effect, 10 complete control

With `CC(C)N(Cc1ccccc1)C(=O)n1oc(=O)n(C(C)C)c1=O` [Compound 165] the “Plant response rating, Wheat (winter)” value ([1]; Rate 1000 g/ha, 0 to 100 scale, 0 is no effect and 100 is complete control) was 85, the “Plant response rating, Wheat (winter)” value ([1]; Rate 500 g/ha, 0 to 100 scale, 0 no effect, 100 complete control) was 65 and the “Wheat (winter) plant response rating” value [1, 11] was 40. The “I. Ryegrass plant response rating (0 to 100 scale)” value [2] was 60, the “Plant response rating, I. Ryegrass” value [2, 12] was 55 and the “Plant response rating, I. Ryegrass” value [2, 13] was 70. The “Wild oat plant response rating (0 to 100 scale)” value [3] was 55, the “Plant response rating, Wild oat” value [3, 12] was 60 and the “Plant response rating, Wild oat” value [3, 13] was 70. For the same compound, the “Barley (winter) plant response rating (0 to 100 scale)” value [4] was 20, the “Plant response rating, Barley (winter)” value [4, 12] was 55 and the “Plant response rating, Barley (winter)” value [4, 13] was 50. The “Wheat (winter) plant response rating (0 to 100 scale)” value [5] was 40, the “Plant response rating, Wheat (winter)” value [5, 12] was 50 and the “Plant response rating, Wheat (winter)” value [5, 13] was 70. The “Morningglory plant response rating” value [6, 14] was 3, the “Morningglory plant response rating” value [6, 15] was 0 and the “Morningglory plant response rating (0 to 10 scale)” value [6, 16] was 0. The “Morningglory plant response rating” value [6, 17] was 0, the “Morningglory plant response rating” value [6, 18] was 3 and the “Morningglory plant response rating” value [6, 19] was 3. For the same compound, the “Plant response rating, Morningglory” value [6, 20] was 3, the “Morningglory plant response rating” value [6, 21] was 4 and the “Blackgrass plant response rating (0 to 100 scale)” value [7] was 40. For the same compound, the “Plant response rating, Blackgrass” value [7, 12] was 60, the “Plant response rating, Blackgrass” value [7, 13] was 100 and the “Green foxtail plant response rating (0 to 100 scale)” value [8] was 50. The “Plant response rating, Green foxtail” value [8, 12] was 55, the “Plant response rating, Green foxtail” value [8, 13] was 65 and the “Redroot pigweed plant response rating” value [9, 14] was 2. The “Redroot pigweed plant response rating” value [9, 15] was 0, the “Redroot pigweed plant response rating (0 to 10 scale)” value [9, 16] was 0 and the “Redroot pigweed plant response rating” value [9, 17] was 0. The “Redroot pigweed plant response rating” value [9, 18] was 1, the “Redroot pigweed plant response rating” value [9, 19] was 0 and the “Plant response rating, Redroot pigweed” value [9, 20] was 4. For the same compound, the “Redroot pigweed plant response rating” value [9, 21] was 4, the “Wild oats plant response rating” value [10, 15] was 4 and the “Wild oats plant response rating (0 to 10 scale)” value [10, 16] was 4. The “Wild oats plant response rating” value [10, 17] was 4, the “Wild oats plant response rating” value [10, 18] was 6 and the “Plant response rating, Wild oats” value [10, 20] was 3. The “Wild oats plant response rating” value [10, 21] was 3.
In the case of `CC(C)N(C(=O)n1oc(=O)n([C@H](C)c2ccccc2)c1=O)c1ccc(F)cc1F` [Compound 238], the “Plant response rating, Wheat (winter)” value [1, 13] is reported as 40, the “Wheat (winter) plant response rating” value [1, 11] is reported as 60 and the “I. Ryegrass plant response rating (0 to 100 scale)” value [2] is reported as 50. The “Plant response rating, I. Ryegrass” value [2, 22] was 85, the “Wild oat plant response rating (0 to 100 scale)” value [3] was 50 and the “Plant response rating, Wild oat” value [3, 22] was 50. The “Barley (winter) plant response rating (0 to 100 scale)” value [4] was 40, the “Plant response rating, Barley (winter)” value [4, 22] was 30 and the “Wheat (winter) plant response rating (0 to 100 scale)” value [5] was 40. The “Plant response rating, Wheat (winter)” value [5, 22] was 50, the “Morningglory plant response rating” value [6, 15] was 0 and the “Morningglory plant response rating” value [6, 23] was 0. The “Plant response rating, Morningglory” value [6, 24] was 3, the “Morningglory plant response rating” value [6, 19] was 2 and the “Morningglory plant response rating” value [6, 25] was 0. For the same compound, the “Plant response rating (0 to 10; 0 is no effect, 10 is complete control), Morningglory” value ([6]; Rate 250 g/ha, Postemergence) was 3, the “Morningglory plant response rating” value [6, 26] was 5 and the “Blackgrass plant response rating (0 to 100 scale)” value [7] was 50. For the same compound, the “Plant response rating, Blackgrass” value [7, 22] was 75, the “Green foxtail plant response rating (0 to 100 scale)” value [8] was 70 and the “Plant response rating, Green foxtail” value [8, 22] was 100. The “Redroot pigweed plant response rating” value [9, 15] was 0, the “Redroot pigweed plant response rating” value [9, 23] was 0 and the “Plant response rating, Redroot pigweed” value [9, 24] was 9. For the same compound, the “Redroot pigweed plant response rating” value [9, 19] was 0, the “Redroot pigweed plant response rating” value [9, 25] was 0 and the “Plant response rating (0 to 10; 0 is no effect, 10 is complete control), Redroot pigweed” value ([9]; Rate 250 g/ha, Postemergence) was 0. The “Redroot pigweed plant response rating” value [9, 26] was 5, the “Wild oats plant response rating” value [10, 15] was 0 and the “Wild oats plant response rating” value [10, 23] was 0. The “Plant response rating, Wild oats” value [10, 24] was 3, the “Wild oats plant response rating” value [10, 19] was 0 and the “Wild oats plant response rating” value [10, 25] was 0. For the same compound, the “Wild oats plant response rating” value [10, 26] was 0.

From patent US6737383B1, “Herbicidal oxadiazolidines” (priority 1999, dated 2004)
